From patent US20230091047A1 (priority 2019, published 2023)
Where two headings read alike, the source gives them in different places.

Tests used:
[1] = test system: HBV (HepG2.117 cell line, inducibly HBV producing); test: Anti-HBV activity: intracellular HBV DNA by real-time PCR in HepG2.117 cells after 3 days of treatment; assay type: cell-based, hepatitis B virus
How it was run: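 HepG2.117 cells (Tet-off, inducible HBV production) were induced to replicate HBV by doxycycline absence, then treated with serially diluted compound for 3 days. Activity was quantified as intracellular HBV DNA by real-time PCR using an HBV-specific primer set and probe.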

in vitro = assay type: cell-based; settings: human, HepG2 or HepG2.117 cells, mean value
How it was run: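 Luminescent ATP quantitation served as the viability endpoint following a 3- or 4-day incubation with test compounds.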

[2] = Hepatitis B virus, HepG2.117, 72 h, HepG2.117 cells, 3 days of treatment, intracellular HBV DNA by real-time PCR; mean value; read-out: EC50 (μM, mean value)
[3] = 3-days incubation (unmarked values), ATPlite
[4] = Hepatitis B virus, HepG2.117, 72 h, HepG2.117 cells, intracellular HBV DNA by real-time PCR, 3 days of treatment, mean value; read-out: EC50 (μM, mean value)
[5] = ATPlite, 3-days incubation (not marked with *)

Compound	EC50 [1, 2] [µM]	CC50 at 3 days (in vitro; [3]) [µM]	EC50 [1, 4] [µM]	CC50 at 3 days (in vitro; [5]) [µM]	also measured
CNC(=O)c1ccc(-n2c(Nc3ccon3)nc3c(c2=O)C[C@@H](C)N(C(=O)c2ccc(Cl)c(Cl)c2)C3)cc1 [Compound C278, 4-[(6R)-7-(3,4-dichlorobenzoyl)-6-methyl-2-[(1,2-oxazol-3-yl)amino]-4-oxo-5,6,7,8-tetrahydropyrido[3,4-d]pyrimidin-3(4H)-yl]-N-methylbenzamide]	11	> 50	–	–	–
CC(C)Nc1nc2c(c(=O)n1-c1ccc(C(=O)NC3(C(=O)O)CC3)cc1)C[C@@H](C)N(C(=O)c1ccc(Cl)c(Cl)c1)C2 [Compound C266, 1-{4-[(6R)-7-(3,4-dichlorobenzoyl)-6-methyl-4-oxo-2-[(propan-2-yl)amino]-5,6,7,8-tetrahydropyrido[3,4-d]pyrimidin-3(4H)-yl]benzamido}cyclopropane-1-carboxylic acid]	13.4	> 50	–	–	–
CNC(=O)c1ccc(-n2c(NCc3nnc(C(C)C)[nH]3)nc3c(c2=O)C[C@@H](C)N(C(=O)c2ccc(Cl)c(Cl)c2)C3)cc1 [Compound C545]	–	–	> 25	> 50	–
CNC(=O)c1cc(-n2c(NC(C)C)nc3c(c2=O)C[C@@H](C)N(C(=O)c2ccc(Cl)c(Cl)c2)C3)n(C(C)C)n1 [Compound C424]	–	–	0.93	> 50	–
C[C@@H]1Cc2c(nc(NC3(c4ccncc4)CC3)n(-c3ccc(S(C)(=O)=O)cc3)c2=O)CN1C(=O)c1ccc(Cl)c(Cl)c1 [Compound C198, (6R)-7-(3,4-dichlorobenzoyl)-3-[4-(methanesulfonyl)phenyl]-6-methyl-2-{[1-(pyridin-4-yl)cyclopropyl]amino}-5,6,7,8-tetrahydropyrido[3,4-d]pyrimidin-4(3H)-one]	3.25	> 50	–	–	–
CC(C)Nc1nc2c(c(=O)n1-c1ccc(S(C)(=O)=O)cc1)CCN(C(=O)c1cc3ccccc3o1)C2 [Compound C152, 7-(1-benzofuran-2-carbonyl)-3-[4-(methanesulfonyl)phenyl]-2-[(propan-2-yl)amino]-5,6,7,8-tetrahydropyrido[3,4-d]pyrimidin-4(3H)-one]	30.8	> 50	–	–	–
CNC(=O)c1ccc(-n2c(N[C@@H](C)c3ccccc3)nc3c(c2=O)C[C@@H](C)N(C(=O)c2ccc(Cl)c(Cl)c2)C3)c(Cl)c1 (single isomer, unassigned) [Compound C386a]	–	–	0.08	> 50	–
CNC(=O)c1ccc(-n2c(NC(C)C)nc3c(c2=O)C[C@@H](C)N(C(=O)c2ccc(Cl)c(C(F)(F)F)c2)C3)nc1 [Compound C698]	0.02	–	–	–	CC50 at 3 days (in vitro; 3-days incubation (unmarked values), ATPlite viability): > 50 µM
COc1ccccc1-n1c(NC2CCCC2)nc2c(c1=O)CCN(C(=O)c1ccc(Cl)c(Cl)c1)C2 [Compound C45, 2-(cyclopentylamino)-7-(3,4-dichlorobenzoyl)-3-(2-methoxyphenyl)-5,6,7,8-tetrahydropyrido[3,4-d]pyrimidin-4(3H)-one]	6.62	27.2	–	–	–
CNC(=O)c1ccc(-n2c(NC(C)C)nc3c(c2=O)C[C@@H](C)N(C(=O)c2ccc(C)c(Br)c2)C3)cc1 [Compound C586]	–	–	0.21	> 50	–
CC(C)Nc1nc2c(c(=O)n1-c1ccc(C(=O)O)cc1)C[C@@H](C)N(C(=O)c1ccc(Cl)c(Cl)c1)C2 [Compound I70, (R)-4-(7-(3,4-dichlorobenzoyl)-2-(isopropylamino)-6-methyl-4-oxo-5,6,7,8-tetrahydropyrido[3,4-d]pyrimidin-3(4H)-yl)benzoic acid]	–	–	3.6	> 50	–
CNC(=O)c1ccc(-n2c(NC(C)C)nc3c(c2=O)C[C@@H](C)N(C(=O)c2ccc(Cl)c(Cl)c2)C3)c(C(F)(F)F)c1 (atropisomer, axis not shown) [Compound C340a, 4-[(6R)-7-(3,4-dichlorobenzoyl)-6-methyl-4-oxo-2-[(propan-2-yl)amino]-5,6,7,8-tetrahydropyrido[3,4-d]pyrimidin-3(4H)-yl]-N-methyl-3-(trifluoromethyl)benzamide]	–	23.2	–	–	EC50 ([1]; HepG2.117 cells, 3 days of treatment, intracellular HBV DNA by real-time PCR; mean value; read-out: EC50 (μM, mean value)): 0.1 µM
CNC(=O)c1ccc(-n2c(N[C@@H](C)c3ccc4[nH]ncc4c3)nc3c(c2=O)C[C@@H](C)N(C(=O)c2ccc(Cl)c(Cl)c2)C3)cc1 (single isomer, unassigned) [Compound C529b]	–	–	0.72	> 50	–
CNC(=O)c1ccc(-n2c(N3CCC[C@H]3C)nc3c(c2=O)C[C@@H](C)N(C(=O)c2ccc(Cl)c(Cl)c2)C3)cc1 [Compound C252, 4-[(6R)-7-(3,4-dichlorobenzoyl)-6-methyl-2-[(2R)-2-methylpyrrolidin-1-yl]-4-oxo-5,6,7,8-tetrahydropyrido[3,4-d]pyrimidin-3(4H)-yl]-N-methylbenzamide]	0.04	25.9	–	–	–
CC(C)Nc1nc2c(c(=O)n1-c1ccc(-c3cnccn3)cc1)CCN(C(=O)c1ccc(Cl)c(Cl)c1)C2 [Compound C176, 7-(3,4-dichlorobenzoyl)-2-[(propan-2-yl)amino]-3-[4-(pyrazin-2-yl)phenyl]-5,6,7,8-tetrahydropyrido[3,4-d]pyrimidin-4(3H)-one]	0.57	8.7	–	–	–
COc1ccccc1-n1c(SC)nc2c(c1=O)CCN(C(=O)c1ccc(Cl)c(Cl)c1)C2 [Compound C4, 7-(3,4-dichlorobenzoyl)-3-(2-methoxyphenyl)-2-(methylsulfanyl)-5,6,7,8-tetrahydropyrido[3,4-d]pyrimidin-4(3H)-one]	1.79	–	–	–	CC50 at 4 days (in vitro; 4-days incubation (values marked with *), ATPlite): 36.8 µM
CNC(=O)c1ccc(-n2c(NC(C)C)nc3c(c2=O)C[C@@H](C)N(C(=O)c2cc(C)cc(F)c2)C3)cc1 [Compound C492]	–	–	1.98	> 50	–
COCCNC(=O)c1ccc(-n2c(NC(C)C)nc3c(c2=O)C[C@@H](C)N(C(=O)c2ccc(Cl)c(Cl)c2)C3)cc1 [Compound C205, 4-[(6R)-7-(3,4-dichlorobenzoyl)-6-methyl-4-oxo-2-[(propan-2-yl)amino]-5,6,7,8-tetrahydropyrido[3,4-d]pyrimidin-3(4H)-yl]-N-(2-methoxyethyl)benzamide]	0.13	> 50	–	–	–
CNC(=O)c1ccc(-n2c(N[C@@H](C)c3ccc4c(ccn4C)c3)nc3c(c2=O)C[C@@H](C)N(C(=O)c2ccc(Cl)c(Cl)c2)C3)cc1 (single isomer, unassigned) [Compound C450b]	–	–	0.18	> 50	–
CCOC(=O)[C@H]1CC[C@@H](n2c(NC(C)C)nc3c(c2=O)C[C@@H](C)N(C(=O)c2ccc(Cl)c(Cl)c2)C3)CC1 [Compound C273, ethyl cis-4-[(6R)-7-(3,4-dichlorobenzoyl)-6-methyl-4-oxo-2-[(propan-2-yl)amino]-5,6,7,8-tetrahydropyrido[3,4-d]pyrimidin-3(4H)-yl]cyclohexane-1-carboxylate]	0.31	33.4	–	–	–
CC(C)Nc1nc2c(c(=O)n1-c1ccc(S(C)(=O)=O)cc1)CCN(C(=O)c1nc3ccccc3o1)C2 [Compound C362]	> 50	> 50	–	–	–
COc1ccc(CNc2nc3c(c(=O)n2-c2ccnn2C)CCN(C(=O)c2ccc(Cl)c(Cl)c2)C3)cc1 [Compound C108, 7-(3,4-dichlorobenzoyl)-2-{[(4-methoxyphenyl)methyl]amino}-3-(1-methyl-1H-pyrazol-5-yl)-5,6,7,8-tetrahydropyrido[3,4-d]pyrimidin-4(3H)-one]	1.87	26.5	–	–	–
CNC(=O)c1ccc(-n2c(NC(C)C)nc3c(c2=O)C[C@@H](C)N(C(=O)c2ccc(Br)c(F)c2C)C3)cc1 [Compound C581]	–	–	0.15	> 50	–
CNC(=O)c1ccc(-n2c(N[C@@H]3CCO[C@H]3c3ccccc3)nc3c(c2=O)C[C@@H](C)N(C(=O)c2ccc(Cl)c(Cl)c2)C3)cc1 [Compound C466]	–	–	1.43	31.5	–
CNC(=O)c1ccc(-n2c(N[C@H](C)c3ccc4c(ccn4C)c3)nc3c(c2=O)C[C@@H](C)N(C(=O)c2ccc(Cl)c(Cl)c2)C3)cc1 (single isomer, unassigned) [Compound C450a]	–	–	0.02	> 50	–
CNC(=O)c1ccc(-n2c(N[C@@H](C)c3cccc(C(F)F)c3)nc3c(c2=O)C[C@@H](C)N(C(=O)c2ccc(Cl)c(Cl)c2)C3)cc1 (single isomer, unassigned) [Compound C660b]	–	–	0.32	27.5	–
CC(C)Nc1nc2c(c(=O)n1-c1ccc3c(c1)CC(=O)N3)C[C@@H](C)N(C(=O)c1ccc(Cl)c(Cl)c1)C2 [Compound C206, (6R)-7-(3,4-dichlorobenzoyl)-6-methyl-3-(2-oxo-2,3-dihydro-1H-indol-5-yl)-2-[(propan-2-yl)amino]-5,6,7,8-tetrahydropyrido[3,4-d]pyrimidin-4(3H)-one]	0.16	48.9	–	–	–
CNC(=O)c1ccc(-n2c(NCc3cccc(-c4nccn4C)c3)nc3c(c2=O)C[C@@H](C)N(C(=O)c2ccc(Cl)c(Cl)c2)C3)cc1 [Compound C488]	–	–	7.31	28.2	–
CNC(=O)c1ccc(-n2c(NC(C)C)nc3c(c2=O)C[C@@H](C)N(C(=O)c2ccc(Cl)c(Cl)c2)C3)nc1 [Compound C304, 6-[(6R)-7-(3,4-dichlorobenzoyl)-6-methyl-4-oxo-2-[(propan-2-yl)amino]-5,6,7,8-tetrahydropyrido[3,4-d]pyrimidin-3(4H)-yl]-N-methylpyridine-3-carboxamide]	0.07	> 50	–	–	–
